20 molecules from patent publication US10758534B2 (Vertex Pharmaceuticals Incorporated, priority 2014, dated 2020) can be followed below.

The target of this test is T1, F508del (Homo sapiens, UniProt P13569, DEL508-508).
T1 construct: expressed in transfected cells
Kind of test: Protocol 1: membrane potential optical assay (FLIPR III, voltage sensing dye), identification of potentiator compounds. Type of test: cell-based. The settings on record: Table 3, compounds of Table 1. The procedure, abridged:
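Membrane potential in forskolin-activated, temperature-rescued F508del NIH 3T3 cells is followed with a voltage-sensing dye on FLIPR III. A chloride ion gradient created at the single addition step provides the driving force, after prior compound treatment.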

T1 sequence (P13569 with tags, fused parts or gaps DEL508-508): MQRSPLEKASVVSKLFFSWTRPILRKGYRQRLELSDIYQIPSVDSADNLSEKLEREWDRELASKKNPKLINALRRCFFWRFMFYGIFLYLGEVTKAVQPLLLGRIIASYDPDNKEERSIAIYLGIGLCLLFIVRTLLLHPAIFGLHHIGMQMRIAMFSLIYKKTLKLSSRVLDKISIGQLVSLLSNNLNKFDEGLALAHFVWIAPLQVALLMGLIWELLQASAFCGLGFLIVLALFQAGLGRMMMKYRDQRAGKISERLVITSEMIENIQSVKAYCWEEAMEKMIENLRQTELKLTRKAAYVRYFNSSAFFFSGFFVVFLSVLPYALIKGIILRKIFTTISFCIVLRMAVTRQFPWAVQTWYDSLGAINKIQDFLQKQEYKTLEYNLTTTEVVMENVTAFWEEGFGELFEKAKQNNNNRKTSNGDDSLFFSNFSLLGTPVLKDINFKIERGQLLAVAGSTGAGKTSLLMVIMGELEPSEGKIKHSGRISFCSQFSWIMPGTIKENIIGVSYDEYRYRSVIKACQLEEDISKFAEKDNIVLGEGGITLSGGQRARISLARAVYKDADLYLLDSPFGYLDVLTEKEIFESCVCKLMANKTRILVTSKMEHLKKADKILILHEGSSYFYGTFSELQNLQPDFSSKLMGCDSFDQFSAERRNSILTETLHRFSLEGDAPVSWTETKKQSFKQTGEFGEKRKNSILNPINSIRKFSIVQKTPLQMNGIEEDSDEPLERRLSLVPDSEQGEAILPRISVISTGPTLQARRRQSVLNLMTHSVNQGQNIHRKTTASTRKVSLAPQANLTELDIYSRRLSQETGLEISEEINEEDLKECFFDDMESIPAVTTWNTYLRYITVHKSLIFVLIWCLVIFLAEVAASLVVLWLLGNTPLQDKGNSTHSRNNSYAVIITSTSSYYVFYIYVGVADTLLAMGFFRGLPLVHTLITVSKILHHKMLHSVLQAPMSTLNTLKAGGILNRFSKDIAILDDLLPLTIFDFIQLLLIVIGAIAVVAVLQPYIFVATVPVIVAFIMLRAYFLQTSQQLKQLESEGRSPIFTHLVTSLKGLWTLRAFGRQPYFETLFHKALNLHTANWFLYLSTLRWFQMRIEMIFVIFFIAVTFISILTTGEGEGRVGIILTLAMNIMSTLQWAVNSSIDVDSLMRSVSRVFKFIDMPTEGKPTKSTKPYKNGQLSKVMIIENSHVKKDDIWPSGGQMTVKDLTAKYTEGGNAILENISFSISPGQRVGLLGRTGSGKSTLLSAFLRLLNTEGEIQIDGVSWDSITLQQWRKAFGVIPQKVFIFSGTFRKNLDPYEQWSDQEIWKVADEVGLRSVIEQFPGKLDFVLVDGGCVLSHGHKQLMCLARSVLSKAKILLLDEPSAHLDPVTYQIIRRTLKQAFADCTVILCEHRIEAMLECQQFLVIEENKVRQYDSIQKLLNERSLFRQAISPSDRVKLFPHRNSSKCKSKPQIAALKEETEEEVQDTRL

Regarding `C[C@@H]1CN(c2nc(C3=CCC(C(F)(F)F)CC3)ccc2C(=O)NS(=O)(=O)c2cccc(N)n2)C(C)(C)C1` (stereo partly drawn) [Compound 1664, N-[(6-amino-2-pyridyl)sulfonyl]-6-[4-(trifluoromethyl)cyclohexen-1-yl]-2-[(4S)-2,2,4-trimethylpyrrolidin-1-yl]pyridine-3-carboxamide], the EC30 entry is on record as “+++ (“+++” means <3 uM)”. Next, `CC(C)COc1cc(F)cc(-c2ccc(C(=O)NS(=O)(=O)c3cccc(N)n3)c(OCC3CCOCC3)n2)c1` [Compound 933, N-[(6-amino-2-pyridyl)sulfonyl]-6-(3-fluoro-5-isobutoxy-phenyl)-2-(tetrahydropyran-4-ylmethoxy)pyridine-3-carboxamide]: “+++ (“+++” means <3 uM)”; `CCOc1ccc(-c2ccc(C(=O)NS(=O)(=O)c3cccnc3N)c(N3C[C@@H](C)CC3(C)C)n2)cc1` [Compound 1945, N-[(2-amino-3-pyridyl)sulfonyl]-6-(4-ethoxyphenyl)-2-[(4S)-2,2,4-trimethylpyrrolidin-1-yl]pyridine-3-carboxamide]: “+++ (“+++” means <3 uM)”. Regarding `Cc1cc(C)c(Cn2nc(C(C)(C)C)cc2C(=O)NS(=O)(=O)c2ccc(N)cc2)c(C)c1` [Compound 1653, N-(4-aminophenyl)sulfonyl-5-tert-butyl-2-[(2,4,6-trimethylphenyl)methyl]pyrazole-3-carboxamide], the EC30 result was “+++ (“+++” means <3 uM)”. Regarding `Cc1ccnc(-c2ccc(C(=O)NS(=O)(=O)c3cccc(N)n3)c(Oc3c(C)cc(C)cc3C)n2)c1` [Compound 1272, N-[(6-amino-2-pyridyl)sulfonyl]-6-(4-methyl-2-pyridyl)-2-(2,4,6-trimethylphenoxy)pyridine-3-carboxamide], the EC30 result is reported as “+++ (“+++” means <3 uM)”. Take `CC(C)COc1cc(F)cc(-c2ccc(C(=O)NS(=O)(=O)c3cccc(N)n3)c(OC3CCCCC3C)n2)c1` (centres unmarked) [Compound 1108, N-[(6-amino-2-pyridyl)sulfonyl]-6-(3-fluoro-5-isobutoxy-phenyl)-2-(2-methylcyclohexoxy)pyridine-3-carboxamide]: the EC30 entry is recorded as “+++ (“+++” means <3 uM)”.

Regarding `CC1(C)CN(c2nc(C(F)(F)F)ccc2C(=O)NS(=O)(=O)c2cccc(N)n2)C(C)(C)C1` [Compound 1635, N-[(6-amino-2-pyridyl)sulfonyl]-2-(2,2,4,4-tetramethylpyrrolidin-1-yl)-6-(trifluoromethyl)pyridine-3-carboxamide], the EC30 result is on record as “+++ (“+++” means <3 uM)”. For `COc1cc(C)c(-c2ccc(C(=O)NS(=O)(=O)c3cccc(N)n3)c(N3CC(C)CC3(C)C)n2)cc1C` (centres unmarked) [Compound 1259, N-[(6-amino-2-pyridyl)sulfonyl]-6-(4-methoxy-2,5-dimethyl-phenyl)-2-(2,2,4-trimethylpyrrolidin-1-yl)pyridine-3-carboxamide], the EC30 result is listed as “+++ (“+++” means <3 uM)”. As to `C[C@@H]1CN(c2nc(CCC3CC3)ccc2C(=O)NS(=O)(=O)c2cccc(N)n2)C(C)(C)C1` [Compound 1677, N-[(6-amino-2-pyridyl)sulfonyl]-6-(2-cyclopropylethyl)-2-[(4S)-2,2,4-trimethylpyrrolidin-1-yl]pyridine-3-carboxamide], the EC30 result is listed as “+++ (“+++” means <3 uM)”.

`CC(C)COc1cc(F)cc(-c2ccc(C(=O)NS(=O)(=O)c3cccc(N)n3)c(N3CCC(C)C3(C)C)n2)c1` (centres unmarked) [Compound 1121, N-[(6-amino-2-pyridyl)sulfonyl]-6-(3-fluoro-5-isobutoxy-phenyl)-2-(2,2,3-trimethylpyrrolidin-1-yl)pyridine-3-carboxamide]: the EC30 entry is listed as “+++ (“+++” means <3 uM)”. Next, `CCc1cnc2c(c1)cc(C(=O)NS(=O)(=O)c1cccc(N)n1)n2Cc1c(C)cc(C)cc1C` [Compound 816, N-[(6-amino-2-pyridyl)sulfonyl]-5-ethyl-1-[(2,4,6-trimethylphenyl)methyl]pyrrolo[2,3-b]pyridine-2-carboxamide]: “++ (“++” means between 3 uM and 10 uM)”; `COc1cccc(-c2cnc(N3CC(C)CC3(C)C)c(C(=O)NS(=O)(=O)c3cccc(N)n3)c2)n1` (centres unmarked) [Compound 1861, N-[(6-amino-2-pyridyl)sulfonyl]-5-(6-methoxy-2-pyridyl)-2-(2,2,4-trimethylpyrrolidin-1-yl)pyridine-3-carboxamide]: “+++ (“+++” means <3 uM)”; `Cc1cc(C)c(Oc2nc(-c3cccc(CN)c3)ccc2C(=O)NS(=O)(=O)c2cccc(N)n2)c(C)c1` [Compound 801, 6-[3-(aminomethyl)phenyl]-N-[(6-amino-2-pyridyl)sulfonyl]-2-(2,4,6-trimethylphenoxy)pyridine-3-carboxamide]: “+ (“+” means greater than 10 uM)”. Then `C[C@@H]1CN(c2nc(C3CCCCO3)ccc2C(=O)NS(=O)(=O)c2cccc(N)n2)C(C)(C)C1` (stereo partly drawn) [Compound 1500, N-[(6-amino-2-pyridyl)sulfonyl]-6-tetrahydropyran-2-yl-2-[(4S)-2,2,4-trimethylpyrrolidin-1-yl]pyridine-3-carboxamide], with “+++ (“+++” means <3 uM)”. Then `CC(C)COc1cc(F)cc(-c2ccc(C(=O)NS(=O)(=O)c3cccc(N)n3)c(N3CCC4CC43)n2)c1` (centres unmarked) [Compound 906, N-[(6-amino-2-pyridyl)sulfonyl]-2-(4-azabicyclo[3.1.0]hexan-4-yl)-6-(3-fluoro-5-isobutoxy-phenyl)pyridine-3-carboxamide], with “+++ (“+++” means <3 uM)”; and `Cc1ccc(-c2ccc(C(=O)NS(=O)(=O)c3nccnc3N)c(Oc3c(C)cc(C)cc3C)n2)cc1` [Compound 1047, N-(3-aminopyrazin-2-yl)sulfonyl-6-(p-tolyl)-2-(2,4,6-trimethylphenoxy)pyridine-3-carboxamide], with “+++ (“+++” means <3 uM)”. Consider `CC(C)COc1cc(F)cc(-c2ccc(C(=O)NS(=O)(=O)c3cccc(N)n3)c(N3C[C@H](C)CC3(C)C)n2)c1` [Compound 1289, N-[(6-amino-2-pyridyl)sulfonyl]-6-(3-fluoro-5-isobutoxy-phenyl)-2-[(4R)-2,2,4-trimethylpyrrolidin-1-yl]pyridine-3-carboxamide], for which the EC30 entry is given as “+++ (“+++” means <3 uM)”. Next, `CC(C)Oc1ccc(-c2ccc(C(=O)NS(=O)(=O)c3cccc(N)n3)c(N3CCC(Oc4ccccc4)C3)n2)cn1` (centres unmarked) [Compound 1092, N-[(6-amino-2-pyridyl)sulfonyl]-6-(6-isopropoxy-3-pyridyl)-2-(3-phenoxypyrrolidin-1-yl)pyridine-3-carboxamide]: “++ (“++” means between 3 uM and 10 uM)”; `Cc1ccc(-c2ccc(C(=O)NS(=O)(=O)c3ccc[nH]c3=O)c(Oc3c(C)cc(C)cc3C)n2)cc1` [Compound 1300, N-[(2-oxo-1H-pyridin-3-yl)sulfonyl]-6-(p-tolyl)-2-(2,4,6-trimethylphenoxy)pyridine-3-carboxamide]: “+++ (“+++” means <3 uM)”; `COc1ccc(-c2ccc(C(=O)NS(=O)(=O)c3cccnc3N)c(N3C[C@@H](C)CC3(C)C)n2)c(CO)c1` [Compound 1707, N-[(2-amino-3-pyridyl)sulfonyl]-6-[2-(hydroxymethyl)-4-methoxy-phenyl]-2-[(4S)-2,2,4-trimethylpyrrolidin-1-yl]pyridine-3-carboxamide]: “++ (“++” means between 3 uM and 10 uM)”.
